# Measurements from ChEMBL document CHEMBL4825706, “Synthesis and biological evaluation of selenogefitinib for reducing bleomycin-induced pulmonary fibrosis” (Bioorg Med Chem Lett, 2021).
# Active and inactive are the calls of the source. No cut-off for these calls is given here.
# Key:
# Mus musculus [1] = assay: Antifibrotic activity in C57BL mouse model of BLM-induced lung fibrosis assessed as TNF-alpha level in blood at 60 mg/kg measured after 14 days by flow cytometry (reference value: 3.12 +/- 0.11 pg/ml); type: functional; conditions: time 14 day
# L02 = assay: Cytotoxicity against human L02 cells assessed as inhibition of cell growth measured by CCK8 assay; type: functional, cell-based
# Mus musculus [2] = assay: Antifibrotic activity in C57BL mouse model of BLM-induced lung fibrosis assessed as IL-6 level in blood at 60 mg/kg measured after 14 days by flow cytometry (reference value: 2.36 +/- 0.16 pg/ml); type: functional; conditions: time 14 day
# Mus musculus [3] = assay: Antifibrotic activity in C57BL mouse model of BLM-induced lung fibrosis assessed as HYP level at 60 mg/kg (reference value: 5.31 +/- 0.79 ug/mg); type: functional
# [4] = biological target: Epidermal growth factor receptor (Homo sapiens, UniProt P00533); assay: Inhibition of EGFR (unknown origin) by ADP-Glo kinase assay
# Chain of Epidermal growth factor receptor (P00533 whole entry): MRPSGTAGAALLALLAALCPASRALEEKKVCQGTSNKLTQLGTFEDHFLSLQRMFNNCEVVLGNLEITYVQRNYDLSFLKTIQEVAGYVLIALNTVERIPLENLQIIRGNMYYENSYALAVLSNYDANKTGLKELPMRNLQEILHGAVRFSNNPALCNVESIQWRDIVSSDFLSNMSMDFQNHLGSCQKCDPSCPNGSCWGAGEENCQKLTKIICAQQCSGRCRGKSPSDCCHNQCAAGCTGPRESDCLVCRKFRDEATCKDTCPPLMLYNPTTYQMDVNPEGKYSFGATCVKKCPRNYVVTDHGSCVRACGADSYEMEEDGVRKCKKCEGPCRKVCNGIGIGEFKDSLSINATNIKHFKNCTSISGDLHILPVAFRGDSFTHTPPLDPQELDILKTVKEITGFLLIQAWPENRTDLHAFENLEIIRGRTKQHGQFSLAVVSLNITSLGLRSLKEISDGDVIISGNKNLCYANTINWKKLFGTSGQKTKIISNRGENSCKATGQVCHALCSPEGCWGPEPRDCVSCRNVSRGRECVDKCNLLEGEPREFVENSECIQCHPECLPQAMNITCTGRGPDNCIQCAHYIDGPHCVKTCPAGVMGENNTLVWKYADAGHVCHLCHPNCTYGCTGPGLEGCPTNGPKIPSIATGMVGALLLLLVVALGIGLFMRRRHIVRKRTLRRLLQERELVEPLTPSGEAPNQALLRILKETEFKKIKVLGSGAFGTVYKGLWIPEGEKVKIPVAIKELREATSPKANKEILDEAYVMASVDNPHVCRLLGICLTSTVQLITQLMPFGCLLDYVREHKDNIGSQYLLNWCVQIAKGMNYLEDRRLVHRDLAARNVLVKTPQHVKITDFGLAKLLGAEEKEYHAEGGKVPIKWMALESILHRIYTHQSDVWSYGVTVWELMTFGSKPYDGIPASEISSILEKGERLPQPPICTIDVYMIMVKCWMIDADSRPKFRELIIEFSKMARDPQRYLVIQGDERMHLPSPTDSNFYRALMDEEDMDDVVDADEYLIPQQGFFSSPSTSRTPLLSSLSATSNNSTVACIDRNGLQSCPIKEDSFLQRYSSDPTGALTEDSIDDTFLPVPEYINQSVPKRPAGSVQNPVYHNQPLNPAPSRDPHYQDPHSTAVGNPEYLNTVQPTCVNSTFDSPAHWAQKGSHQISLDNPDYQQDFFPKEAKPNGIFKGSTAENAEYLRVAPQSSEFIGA
# Mus musculus [5] = assay: Antifibrotic activity in C57BL mouse model of BLM-induced lung fibrosis assessed as reduction in collagen deposition in the lung at 60 mg/kg by masson staining method; type: functional, organism-based
# Mus musculus [6] = assay: Antifibrotic activity in C57BL mouse model of BLM-induced lung fibrosis assessed as MDA content at 60 mg/kg measured after 14 days (reference value: 9.93 +/- 1.41 nmol/ml); type: functional; conditions: time 14 day
# [7] = Cytotoxicity against human HBE cells assessed as inhibition of cell growth measured by CCK8 assay; type: ADME, cell-based
# Mus musculus [8] = assay: Antifibrotic activity in C57BL mouse model of BLM-induced lung fibrosis assessed as IL-4 level in blood at 60 mg/kg measured after 14 days by flow cytometry (reference value: 2.72 +/- 0.14 pg/ml); type: functional; conditions: time 14 day
# Mus musculus [9] = assay: Antifibrotic activity in C57BL mouse model of BLM-induced lung fibrosis assessed as reduction in alveolar wall thickness by measuring lung coefficient at 60 mg/kg by hematoxylin and eosin staining based assay (reference value: 12.89 +/- 2.52 g); type: functional
# Mus musculus [10] = assay: Antifibrotic activity in C57BL mouse model of BLM-induced lung fibrosis assessed as reduction in infiltration of inflammatory cells at 60 mg/kg by hematoxylin and eosin staining based assay; type: functional, organism-based
IC50 [4],SMILES,Activity (Mus musculus [1]),IC50 (L02),Activity (Mus musculus [2]),Activity (Mus musculus [3]),Activity (Mus musculus [5]),Activity (Mus musculus [6]),IC50 [7],Activity (Mus musculus [8]),Activity (Mus musculus [9]),Activity (Mus musculus [10])
0.0253 µM,COc1cc2ncnc(Nc3ccc(F)c(Cl)c3)c2cc1OCCCN1CC[Se]CC1,1.56 pg/mL,13.8 µM,1 pg/mL,3.01 µg/mg,Active,6.13 nmol/mL,21.8 µM,1.72 pg/mL,7.56 g,Active
,COc1cc2ncnc(Nc3ccc(F)c(Cl)c3)c2cc1OCCCN1CCOCC1 [GEFITINIB],2.39 pg/mL,,1.77 pg/mL,3.39 µg/mg,Active,8.92 nmol/mL,,2.17 pg/mL,9.7 g,
